The text below walks through data of EP0638125B1, “AC[…] A PRODUCER OF RAPAMYCIN” (PFIZER INC., priority 1992, dated 1993).

Values after ≈ are worked out from the molar mass of the structure shown. A value given as a limit tells only on which side of the number the result lay.

Common to all, as to format: cell-based
The nature of series [1]: cytotoxicity, standard procedure (Mosmann). The source says: (§1) The IC₅₀ values (µg/ml) of MLR and cytotoxicity for rapamycin were 7 x 10⁻³ and >3.0, respectively when tested by standard procedures for MLR (D. P. Dubey et al., Manual of Clinical Laboratory Immunology, 3rd Ed., pp. 847-858, 1986) and for cytotoxicity (T. Mosmann, J., J. Immunol. Methods, 65, 55-63, 1983).

Series [2] has as its system mixed lymphocyte reaction (MLR). The series can be described thus: mixed lymphocyte reaction (MLR), standard procedure (Dubey et al.). Particulars: read-out: IC₅₀ values of MLR.
From the text: as §1

In the next series the test system is Candida albicans. The series can be described thus: antifungal activity, agar plate dilution method with paper disk. Particulars: 40 µg/disk, 8 mm diameter paper disk, agar medium for neomycin assay (Difco). The method, then: Antifungal activity was determined by an agar plate dilution method using a fungal culture, Candida albicans. The diameter of inhibition zone of rapamycin was 25 mm when tested at 40 µg/disk (8 mm diameter paper disk, Advantic) on an commercially available agar medium for neomycin assay (Difco).

As usually defined, the CC50 is the concentration at which the toxic effect on the cells reaches its halfway point. Low values mean greater toxicity to the cells, high ones lower toxicity to the cells. The zone of inhibition is the size of the clear area around the sample on an inoculated plate. Low values mean little suppression of growth, high ones wide suppression of growth. Regarding `CO[C@H]1C[C@@H]2CC[C@@H](C)[C@@](O)(O2)C(=O)C(=O)N2CCCC[C@H]2C(=O)O[C@H]([C@H](C)C[C@@H]2CC[C@@H](O)[C@H](OC)C2)CC(=O)[C@H](C)/C=C(\C)[C@@H](O)[C@@H](OC)C(=O)[C@H](C)C[C@H](C)/C=C/C=C/C=C/1C` [rapamycin], the 50% cytotoxic concentration (CC50) in series [1] was greater than 3000 ng/mL. Also, the IC50 in series [2] came to 7 ng/mL (≈ 7.66 nM). Besides, the zone of inhibition at 40 µg/disc with Candida albicans was found to be 25 mm.
